Entries after “also recorded” stand apart in the source; their conditions may differ. Read-outs that look alike come from different tables or passages of the source.
Tests used:
cells = test: Amount of AP1903 needed in vitro for effective signaling of cells; type: cell-based
Procedure: The amount of AP1903 needed in vitro for effective signaling of cells is about 10-100 nM (MW: 1412 Da). This equates to 14-140 μg/L or ˜0.014-0.14 mg/kg (1.4-140 μg/kg). The dosage may vary according to the application, and may, in certain examples, be more in the range of 0.1-10 nM, or in the range of 50-150 nM, 10-200 nM, 75-125 nM, 100-500 nM, 100-600 nM, 100-700 nM, 100-800 nM, or 100-900 nM. Doses up to 1 mg/kg were well-tolerated in the Phase I study of AP1903 described above.

[1] = tested on: T cells transduced with the retrovirus containing iMC (RV-172); test: AP1903-induced T cell activation by cytokine production (Bio-Plex 27-plex); type: cell-based, human; conditions: iMC (RV-172) T cells, 10 nM AP1903, 24 hours, supernatant
Procedure: 5. To assess AP1903-dependent T cell activation of T cells, 1×10^5 non-transduced (NT) or T cells transduced with the control retrovirus (RV-171) or the retrovirus containing iMC(RV-172) were plated in triplicate in 96-well plates and cultured at 37° C. 5% CO2 with media alone, or media containing 10 nM AP1903.
6. After 24 hours, the cells were gently mixed and the plate was centrifuged. Supernatant was then collected and plated into a Bio-Plex Human Cytokine/Chemokine 27-plex plate, which measures the following cytokines and chemokines: • a. Basic-FGF, G-CSF, GM-CSF, IFN-gamma, IL-1Ra, IL-1beta, IL-2, IL-4, IL-5, IL-6, […], IL-7, […], IL-9, IL-10, IL-12p70, IL-13, IL-15, IL-17RA, eotaxin, IP10, MCP-1, MIP-1alpha, MIP-1beta, PDGF-bb, RANTES, TNF-alpha and VEGF. • b. The cytokines and chemokines in the supernatants were subsequently measured and compared to standards in the plate using a Bio-Plex MAGPIX Multiplex Reader.
T cells were stimulated with 10 nM AP1903 for 24 hours then supernatants were assayed for cytokine levels.

CAPAN-1-GFP tumor cells = test: Co-culture of iMC-enabled T cells with CAPAN-1 tumor cells; type: cell-based, human; conditions: RV-172 T cells : CAPAN-1-GFP 5:1, 10 nM AP1903, 72 hours
[2] = cited from earlier work
[3] = tested on: T cells transduced with RV-172; test: T cell proliferation in co-culture wells on AP1903 stimulation; conditions: RV-172 T cells with 10 nM AP1903, co-culture 72 hours, both donors
Procedure: Non-transduced T cells or cells transduced with RV-171 (control vector) or RV-172 (iMC vector) were cultured at a 5:1 ratio of T cells to tumor cells in media supplemented with 50 U/ml IL-2, and either with or without 10 nM AP1903. Co-cultures were then incubated at 37° C. and 5% CO2 for 72 hours. Cultures were subsequently analyzed for the presence of GFP tumor cells by fluorescent microscopy and by harvesting the cultures with 0.25% trypsin/EDTA and measuring the frequency of GFP^+CD3^− tumor cells in the culture by flow cytometry.
Following these initial observations, T cells and tumor cells were harvested and analyzed by flow cytometry to determine the frequency of remaining CAPAN-1 GFP^+ tumor cells.

## CC[C@H](C(=O)N1CCCC[C@H]1C(=O)O[C@H](CCc1ccc(OC)c(OC)c1)c1cccc(OCC(=O)NCCNC(=O)COc2cccc([C@@H](CCc3ccc(OC)c(OC)c3)OC(=O)[C@@H]3CCCCN3C(=O)[C@@H](CC)c3cc(OC)c(OC)c(OC)c3)c2)c1)c1cc(OC)c(OC)c(OC)c1 (relative stereo) [AP1903, 2-Piperidinecarboxylic acid, 1-[(2S)-1-oxo-2-(3,4,5-trimethoxyphenyl)butyl]-, 1,2-ethanediylbis[imino(2-oxo-2,1-ethanediyl)oxy-3,1-phenylene[(1R)-3-(3,4-dimethoxyphenyl)propylidene]]ester, [2S-[1(R*),2R*[S*[S*[1(R*),2R*]]]]]-(9Cl)]
cells; converted from 14-140 μg/L
  amount needed for effective signaling, as dose: 14 to 140 µg/kg
cells; converted with MW 1412 Da
  amount needed for effective signaling, as mass concentration: 14 to 140 µg/L
cells; figure in brackets after the mg/kg range
  amount needed for effective signaling, as dose: 1.4 to 140 µg/kg
cells; in vitro
  amount needed in vitro for effective signaling of cells: 10 to 100 nM
[1]
  Basic-FGF secretion: did not appear to be induced
  G-CSF secretion: did not appear to be induced
  GM-CSF secretion: showed induction
  IFN-gamma secretion: showed induction
  IL-1Ra secretion: did not appear to be induced
  IL-1beta secretion: showed induction
  IL-2 secretion: did not appear to be induced
  IL-4 secretion: showed induction
  IL-5 secretion: showed induction
  IL-6 secretion: showed induction
  IL-7 secretion: did not appear to be induced
  IL-8 secretion: showed induction
  IL-9 secretion: did not appear to be induced
  IL-10 secretion: did not appear to be induced
  IL-12p70 secretion: showed induction
  IL-13 secretion: showed induction
  IL-15 secretion: did not appear to be induced
  IL-17RA secretion: did not appear to be induced
  IP10 secretion: showed induction
  MCP-1 secretion: did not appear to be induced
  MIP-1alpha secretion: showed induction
  MIP-1beta secretion: showed induction
  PDGF-bb secretion: did not appear to be induced
  RANTES secretion: showed induction
  TNF-alpha secretion: showed induction
  VEGF secretion: did not appear to be induced
  eotaxin secretion: did not appear to be induced
CAPAN-1-GFP tumor cells
  GFP+ tumor cells by flow cytometry: reduction of GFP^+ tumor cells; also recorded: induces T cell killing of tumor cells
  GFP+ tumor cells by fluorescent microscopy: very few viable GFP^+ tumor cells; also recorded: elimination of GFP^+ tumor cells
[2]; 0.01, 0.05, 0.1, 0.5 and 1.0 mg/kg IV over 2 hours
  relation of AP1903 plasma levels to dose: directly proportional to dose
[2]; 0.5 hours post-dose
  plasma level as % of maximal concentration: approximately 18%
[2]; 2 hours post-dose
  plasma level as % of maximal concentration: ~7%
[2]; 10 hours post-dose
  plasma level as % of maximal concentration: ~1%
[2]; Phase I study
  well-tolerated doses: up to 1 mg/kg
[2]; plasma, single doses over the 0.01-1.0 mg/kg dose range infused IV over 2 hours, 24 healthy volunteers
  mean Cmax: 10 to 1275 ng/mL
[3]
  T cell proliferation / T cell blast activation (inspection, microscopy): proliferating; also recorded: activation of T cell blasts
